{
  "source": "paper PMC12498136",
  "about": "“Synthesis and biological evaluation of novel carnosic acid derivatives with anticancer activity” (RSC Advances, 2025)",
  "assay_type_in_all_cases": "cell-based",
  "key": {"SW480 cells [1]": {"test_system": "SW480 cells", "assay": "MTT cell viability assay in SW480 cells", "experimental": "(§1) The MTT assay was used to assess the effect of the compounds on cell viability. For this purpose, A375 (1500 cells per well), BJ (10 000 cells per well), Caco-2 (4000 cells per well), HCT116 (3000 cells per well), Mia Paca-2 (2000 cells per well), SW480 (6000 cells per well), and SW620 (8000 cells per well) cells were seeded in 96-well plates and incubated for 24 h. Subsequently, the culture medium was switched with a new medium containing DMSO (control) or the compound at a specified concentration. Following a 72 h incubation period, the supernatant was aspirated, and 100 μL of a mixture (1 : 1) of filtered MTT solution (1 mg per mL PBS) and FBS-free medium was added. The plates were then incubated for 1 h at 37 °C. After this time, the supernatant was aspirated, and the formazan crystals were dissolved in 100 μL of DMSO in each well. Relative cell viability was calculated by measuring absorbance at 570 nm using a Benchmark Plus Microplate Reader (Bio-Rad Laboratories, Hercules, CA, USA). Results are presented as the mean ± standard deviation (SD) of IC50 values, determined by nonlinear regression analysis of dose–response curves (log(inhibitor) vs. response with variable slope (four parameters)) using GraphPad Prism 9 software (GraphPad Software, San Diego, CA, USA)."}, "Caco-2 cells": {"test_system": "Caco-2 cells", "assay": "MTT cell viability assay in Caco-2 cells", "settings": "Homo sapiens, Caco-2, 72 h, read-out: IC50 Caco-2", "experimental": "as §1"}, "[2]": {"test_system": "intracellular ROS levels in SW480 cells", "assay": "Intracellular ROS quantification assay (H2DCFDA, flow cytometry)", "settings": "SW480, 6.3 μM", "experimental": "Intracellular ROS levels can be quantified using lipophilic and non-fluorescent probes, such as 2′,7′-dichlorodihydrofluorescein diacetate (H2DCFDA).[60] To assess the effect of compound 17 on intracellular ROS levels, SW480 cells were treated with compound 17, followed by incubation with the H2DCFDA probe after 24, 48, and 72 h of treatment. After, the cells were subjected to flow cytometry to quantify the fluorescence intensity of 2′,7′-dichlorofluorescein (DCF), as shown in Fig. 9. […] Both effects of compound 17 contributed to the inhibition of SW480 cell growth.\nSW480 cells were seeded at a density of 1.68 × 10^5 cells per well in 6-well plates and incubated at 37 °C for 24 h. The cells were then treated with compound 17 (IC50 value) for 24, 48, or 72 h. The adherent cells were trypsinized, washed with DPBS, collected by centrifugation, and resuspended in 1 mL of HBSS containing 50 μM H2DCFDA probe and 2 mM L-glutamine. After 45 min of incubation at 37 °C in a cell culture incubator, the cell suspensions were washed with 2 mL DPBS and collected by centrifugation. The cells were then stained with 350 μL of DPBS containing 20 μg per mL PI solution (1 mg mL^−1). Inside the cells, the H2DCFDA probe is deacetylated and undergoes oxidation in the presence of ROS, transforming into a DCF fluorescent compound. The fluorescence emitted by DCF from 1 × 10^4 PI-negative cells was measured at 520 nm using a Gallios flow cytometer (Beckman Coulter, Brea, CA, USA)."}, "SW480 cells [3]": {"test_system": "SW480 cells", "assay": "Cell proliferation assay and cell doubling time", "settings": "6.3 μM, ln(2)/cell growth rate", "description": "Cell growth rates represent a characteristic of cell lines, indicating the rate at which the cell population size changes over time.[29] The commonly used metric for assessing the cell growth rate is the cell doubling time, which denotes the time required for a cell population to double in size. Cell doubling time can be estimated using the following formula: ln(2)/cell growth rate.[30] A time-dependent cell growth curve was constructed to elucidate the effect of compound 17 on the growth pattern of SW480 cells (Fig. 4). […] The cell concentration at each time point allowed us to determine the cell growth rate and subsequently calculate the cell doubling time. Compound 17 induced an increase in the doubling time of SW480 cells (69 h) compared to the control group (43 h). In summary, compound 17 affected the growth pattern of SW480 cells by increasing the cell doubling time, consequently decreasing the cell growth rate.\nSW480 cells (1.68 × 10^5 cells per well) were seeded in 6-well plates and incubated at 37 °C for 24 h. The cells were then treated with compound 17 (IC50 value) for 24, 48 or 72 h. […] Cell viability was determined using the Invitrogen Countess 3 Automated Cell Counter (Thermo Fisher Scientific, Waltham, MA, USA). […]"}, "Rb": {"test_system": "Rb", "assay": "Western blot of Rb levels in SW480 cells", "settings": "SW480, 6.3 μM, 24, 48, and 72 h, relative to control", "experimental": "SW480 cells were seeded in 6-well plates and treated as described in the previous subsection. After 24, 48 or 72 h of incubation, adherent cells were washed twice with ice-cold DPBS and incubated with lysis buffer (0.2% Triton X-100, 0.5 mM sodium deoxycholate, 1 mM Na-EDTA, 1 mM DTT, 20 mM Tris–HCl (pH 7.5), 0.5% phosphatases inhibitor cocktail, and 1% proteases inhibitor cocktail) for 30 min at 4 °C. The cells were scraped, sonicated, and centrifuged at 120 00 × g (20 min at 4 °C). […] The gels were then transferred to PVDF membranes, which were blocked with 5% skim milk in PBS-Tween-20 (0.1%) for 1 h at room temperature. Subsequently, the membranes were incubated with the primary antibodies for 30 mi at room temperature (actin) or overnight at 4 °C (CDK4, CDK6, cyclin A, Rb and SOD2/MnSOD). After incubation, the membranes were washed with PBS-Tween-20 (0.1%) and incubated with anti-mouse secondary antibody (40 min) or anti-rabbit secondary antibody (1 h) at room temperature. Finally, the membranes were washed with PBS-Tween-20 (0.1%) and treated with the Immobilon Western Chemiluminescent HRP Substrate Kit, and autoradiography was performed using an FPM-100A film processor (Fujifilm, Tokyo, Japan). western blot results were obtained from three independent experiments, except for cyclin A at 24 h (n = 2), Rb protein at 24 and 72 h (n = 2), and SOD2 (MnSOD) at 72 h (n = 2)."}, "[4]": {"settings": "SW480 cells, ratio of IC50 values"}},
  "data": [
    {"molecule": "CC(=O)Oc1c(C(C)C)cc2c(c1OC(C)=O)[C@@]1(NC(=O)OCC(C)C)CCCC(C)(C)[C@@H]1CC2", "note": "[Compound 17, (4bR,8aS)-8,8-Dimethyl-4b-{[(2-methylpropoxy)carbonyl]amino}-2-(propan-2-yl)-4b,5,6,7,8,8a,9,10-octahydrophenanthrene-3,4-diyl diacetate]", "values": [
      {"measurement": "IC50", "setting": "SW480 cells [1]; Homo sapiens, SW480, 72 h, read-out: IC50 SW480", "value": "6.3 ± 0.5", "unit": "µM"},
      {"measurement": "fold more active than cisplatin", "setting": "SW480 cells [1]; [4]", "value": 2.4, "unit": "fold"},
      {"measurement": "fold more potent than CA 1", "setting": "SW480 cells [1]; [4]", "value": 3.5, "unit": "fold"},
      {"measurement": "IC50", "setting": "Caco-2 cells", "value": "16 ± 2", "unit": "µM"},
      {"measurement": "intracellular ROS levels relative to untreated cells", "setting": "[2]; 24 h (control 100%)", "value": 70, "unit": "%"},
      {"measurement": "intracellular ROS levels relative to untreated cells", "setting": "[2]; 48 h (control 100%)", "value": 157, "unit": "%"},
      {"measurement": "intracellular ROS levels relative to untreated cells", "setting": "[2]; 72 h (control 100%)", "value": 290, "unit": "%"},
      {"measurement": "cell doubling time", "setting": "SW480 cells [3]", "value": 69, "unit": "h"},
      {"measurement": "Rb protein level", "setting": "Rb", "value": "notable decrease"}
    ]}
  ]
}
